System: WT mice
Assay: CBZ treatment of wild-type mice (growth plate, collagen X localisation, bone growth)
Type: in vivo, mouse
Procedure: FIG. 7 illustrates the effect of CBZ treatment of WT mice Wild-type (WT) mice were treated with CBZ for a period of one week. Untreated mice were used as controls. (a)H+E images of the tibial growth plate at 4 weeks of age. (b) Table showing measurements of the growth plate zones. Mean±SEM. Number of animals shown in bracket. (c) Immunohistochemistry for collagen X in the tibial growth plate. Percentage increase in bone growth of the (d) Tibia and (e) Femur from 3 weeks of age. Mean±SEM.
Mice were anaesthetised using isofluorane, placed on X-Ray hyperfilm (GE healthcare, GZ28906850) and X-Rayed using a Flaxitron X-ray specimen radiography system (Flaxitron MX-20). X-Rays were performed prior to implantation and once per week for a maximum of 3 weeks. The analysis of the skeleton was done using Growbase software (Certus Technology Associated Limited, UK) to calculate the length of the femur, tibia and inner canthal distance. The bone growth rate was determined as a percentage increase relative to measurements at 3 weeks of age. Image J was used to analyse the angle of deflection from the vertical tuberosity of the ischium to determine the severity of the hip dysplasia phenotype. All measurements were analysed by ANOVA to determine significance using GraphPad Prism 6.0 software.
Growth plate zone widths were measured on images of known magnification as described previously (Rajpar et al 2009). The beginning of the proliferative zone was defined as the point at which the individual round chondrocytes flattened out and arranged into columns. The start of the hypertrophic zone was defined as the point at which proliferative chondrocytes rounded up and enlarged. The end of the hypertrophic zone was defined as the vascular invasion front. For each animal the data from three separate sections, spaced a minimum of 50 μm apart were averaged. Measurements were analysed for statistical significance by one-way ANOVA using GraphPad Prism 6.0 software. […]

NC(=O)N1c2ccccc2C=Cc2ccccc21 [CBZ, Carbamazepine]
bone growth rates: did not cause a significant increase
hypertrophic zone width (CBZ for one week): no effect
collagen X protein localisation (tibial growth plate): no effect
